Assay: xn = mol fraction of the nth substance listed
Conditions: 101 kPa, Liquid; for mass density: Vibrating tube method

C1CCCCCCC1 [cyclooctane] + CCCCCCC
Conditions | mass density, 308.15 K [kg/m3] | mass density, 313.15 K [kg/m3] | viscosity, 308.15 K [mPa·s] | viscosity, 313.15 K [mPa·s]
x2 = 0 | 823.6 | 819.7 | 1.803 | 1.636
x2 = 0.0938 | 807.7 | 803.8 | 1.405 | 1.288
x2 = 0.1897 | 793 | 789.1 | 1.125 | 1.044
x2 = 0.2896 | 777.5 | 773.6 | 0.9246 | 0.8605
x2 = 0.3979 | 760.8 | 756.8 | 0.7613 | 0.7127
x2 = 0.4949 | 746.1 | 742.2 | 0.6608 | 0.6207
x2 = 0.5964 | 730.9 | 726.9 | 0.5725 | 0.5389
x2 = 0.6919 | 716.7 | 712.7 | 0.5028 | 0.4754
x2 = 0.7795 | 703.6 | 699.7 | 0.4487 | 0.4256
x2 = 0.8934 | 686.9 | 682.8 | 0.4002 | 0.3754

c1ccccc1 [benzene] + Cc1ccccc1
Conditions | mass density, 308.15 K [kg/m3] | mass density, 313.15 K [kg/m3] | viscosity, 308.15 K [mPa·s] | viscosity, 313.15 K [mPa·s]
x1 = 0.0403 | 853.1 | 848.6 | 0.4943 | 0.468
x1 = 0.1393 | 853.7 | 849.1 | 0.4998 | 0.4681
x1 = 0.2551 | 854.5 | 849.9 | 0.4968 | 0.4693
x1 = 0.3116 | 855 | 850.3 | 0.4968 | 0.469
x1 = 0.3863 | 855.7 | 850.9 | 0.4977 | 0.4705
x1 = 0.5033 | 856.6 | 851.8 | 0.503 | 0.4747
x1 = 0.6139 | 857.8 | 852.9 | 0.5078 | 0.4785
x1 = 0.7301 | 859.1 | 854.1 | 0.5166 | 0.4813
x1 = 0.8551 | 860.8 | 855.7 | 0.5227 | 0.487
x1 = 1 | 862.9 | 857.7 | 0.5272 | 0.4942

c1ccccc1 [benzene] + CCCCCCC
Conditions | mass density, 308.15 K [kg/m3] | mass density, 313.15 K [kg/m3] | viscosity, 308.15 K [mPa·s] | viscosity, 313.15 K [mPa·s]
x1 = 0.1099 | 683.6 | 679.4 | 0.3518 | 0.3342
x1 = 0.2052 | 695.3 | 691.1 | 0.3593 | 0.3356
x1 = 0.2896 | 706.6 | 702.4 | 0.3562 | 0.3387
x1 = 0.4212 | 726.5 | 722.1 | 0.3632 | 0.345
x1 = 0.5078 | 740.9 | 736.4 | 0.3724 | 0.3534
x1 = 0.6087 | 760 | 755.4 | 0.3925 | 0.3667
x1 = 0.7263 | 785.5 | 780.8 | 0.4094 | 0.3879
x1 = 0.7936 | 801.9 | 797.1 | 0.4262 | 0.4031
x1 = 0.8987 | 830.6 | 825.6 | 0.4734 | 0.4408
x1 = 1 | 862.9 | 857.7 | 0.5272 | 0.4942

C1CCCCCCC1 [cyclooctane] + Cc1ccccc1
Conditions | mass density, 308.15 K [kg/m3] | mass density, 313.15 K [kg/m3] | viscosity, 308.15 K [mPa·s] | viscosity, 313.15 K [mPa·s]
x2 = 0 | 823.6 | 819.7 | 1.803 | 1.636
x2 = 0.0997 | 824.6 | 820.7 | 1.443 | 1.326
x2 = 0.1951 | 826 | 822.1 | 1.198 | 1.112
x2 = 0.3032 | 828.1 | 824.1 | 1.003 | 0.9333
x2 = 0.3904 | 830 | 826 | 0.8748 | 0.8203
x2 = 0.4868 | 832.5 | 828.5 | 0.7834 | 0.701
x2 = 0.5898 | 835.6 | 831.4 | 0.6981 | 0.6579
x2 = 0.6919 | 839.2 | 834.9 | 0.6266 | 0.5912
x2 = 0.8003 | 843.4 | 839.1 | 0.5673 | 0.5364
x2 = 0.888 | 847.3 | 842.9 | 0.5361 | 0.5033

C1CCCCCCC1 [cyclooctane] + c1ccccc1
Conditions | mass density, 308.15 K [kg/m3] | mass density, 313.15 K [kg/m3] | viscosity, 308.15 K [mPa·s] | viscosity, 313.15 K [mPa·s]
x2 = 0 | 823.6 | 819.7 | 1.803 | 1.636
x2 = 0.1004 | 824.9 | 821 | 1.494 | 1.368
x2 = 0.1826 | 826.4 | 822.4 | 1.294 | 1.193
x2 = 0.3035 | 829 | 824.9 | 1.072 | 0.993
x2 = 0.408 | 831.9 | 827.6 | 0.9222 | 0.859
x2 = 0.5122 | 835.2 | 830.9 | 0.8085 | 0.7548
x2 = 0.5243 | 835.7 | 831.4 | 0.7963 | 0.7437
x2 = 0.6891 | 842.7 | 838.1 | 0.6667 | 0.6274
x2 = 0.7904 | 848.1 | 843.3 | 0.6042 | 0.5677
x2 = 0.9001 | 855.1 | 850.1 | 0.5651 | 0.5263

CCCCCCC [heptane] + CCc1ccccc1
x1 = 1
Conditions | mass density [kg/m3] | viscosity [mPa·s]
308.15 K | 671.3 | 0.3497
313.15 K | 667.1 | 0.3329

CCCCCCC [heptane] + C1CCCCCCC1
x1 = 1
Conditions | mass density [kg/m3] | viscosity [mPa·s]
308.15 K | 671.3 | 0.3497
313.15 K | 667.1 | 0.3329

Source: the NIST ThermoML archive (doi:10.1007/s10765-009-0667-2)
